In the test the target is T1, human TREM2 (Homo sapiens, UniProt Q9NZC2).
T1 construct: expressed in transfected cells; host or cells: HEK293T (HEK293T-hTREM2 cells)
Nature of the test: Cellular phosphorylation of Syk (AlphaLisa) in HEK293T-hTREM2 cells, TREM2 agonist potency. It is filed as cell-based. The settings on record: HEK293 cells expressing human TREM2 and DAP12, pSyk AlphaLisa. As to the method: In Vitro Measurement of Triggering Receptor Expressed on Myeloid Cells 2 Activity Using Cellular Phosphorylation of Spleen Tyrosine Kinase (“Syk”) Assays
Measurement of TREM2 agonist potency was done using a HEK cell line expressing human TREM2 and DAP12 (HEK293T-hTREM2 cells). Binding of small molecules to, and activation of, TREM2 increases the phosphorylation of Syk. The resultant levels of Syk phosphorylation are measured using a commercial AlphaLisa reagent kit. To perform the assay, HEK-hTREM2 cells were plated at 14,000 cells per well in a 384 well plate, in 25 μL of complete growth media and incubated at 37° C., 5% CO2 for 20-24 hours.
Prior to the assay, test compounds were diluted in the 384 well plates in assay buffer and allowed to equilibrate for 30 minutes. Growth media was removed from cell plates by inversion on blotting paper, and 25 μL of test articles in assay buffer was added to cells. Cells were incubated for 45 minutes at room temperature. After 45 minutes, assay buffer was removed and 10 μL of lysis buffer was added. Plates were shaken for 20 minutes at 350 RPM at room temperature. After complete lysis, AlphaLisa reagents were added to the lysate, and fluourescence intensity was measured using a Perkin Elmer Envision plate reader. Intensities were used to generate a standard curve, and % activation was calculated. Curve fitting was performed using Prism v9 software, log(agonist) vs response—variable slope (four parameters), and EC50s were calculated from the curve fit.
The results presented in Table D have been generated with the in vitro assay described above. This assay may be used to test any of the compounds described herein to assess and characterize a compound's ability to act as an agonist of TREM2.

pEC50: −log10 of the molar value.

We go through 17 compounds from patent publication US20260152484A1, “HETEROCYCLIC COMPOUNDS AS TRIGGERING RECEPTOR EXPRESSED ON MYELOID CELLS 2 AGONISTS” (Vigil Neuroscience, Inc., priority 2021, published 2026).

For orientation: pEC50 means the negative decadic logarithm of the EC50, by convention in mol/L.

T1 sequence (Q9NZC2 19-230): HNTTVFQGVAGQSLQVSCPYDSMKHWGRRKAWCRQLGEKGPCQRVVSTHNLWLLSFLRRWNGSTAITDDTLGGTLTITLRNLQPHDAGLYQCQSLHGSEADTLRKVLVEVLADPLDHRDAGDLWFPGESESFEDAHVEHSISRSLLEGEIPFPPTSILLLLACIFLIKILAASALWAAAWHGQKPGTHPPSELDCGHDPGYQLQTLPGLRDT
T1 sequence (O43914 22-113 partner): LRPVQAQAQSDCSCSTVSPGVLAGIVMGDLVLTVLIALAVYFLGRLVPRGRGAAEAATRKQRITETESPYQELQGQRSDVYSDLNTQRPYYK

For `Cc1nc2c(-c3ccc(C(F)(F)F)cc3F)cn([C@H]3CCO[C@@H](c4cnn(C5CC5)c4)C3)c(=O)c2nc1C` [I-123, 6-[(2R,4S)-2-(1-cyclopropyl-1H-pyrazol-4-yl)tetrahydro-2H-pyran-4-yl]-8-[2-fluoro-4-(trifluoromethyl)phenyl]-2,3-dimethylpyrido[3,4-b]pyrazin-5 (6H)-one], for the setting “Table D-2”, the pEC50 was 5.52 to 6.30.

`Cc1nc2c(=O)n(CCc3ccccc3)nc(-c3ccc(Cl)cc3)c2s1` [compound 28, 7-(4-chlorophenyl)-2-methyl-5-phenethylthiazolo[4,5-d]pyridazin-4(5H)-one] had a pEC50 (Table D) of 4.00 to 5.52.

As for `Cc1nc2c(=O)n(CCc3ccccc3)nc(-c3ccc(Cl)c(Cl)c3)c2s1` [compound 32, 7-(3,4-dichlorophenyl)-2-methyl-5-phenethylthiazolo[4,5-d]pyridazin-4(5H)-one], the pEC50 (Table D) is 4.00 to 5.52.

`Cc1nc2c(=O)n(-c3ccc(OC(F)(F)F)cc3)nc(-c3ccc(Cl)cc3)c2s1` [compound 41, 7-(4-chlorophenyl)-2-methyl-5-(4-(trifluoromethoxy)phenyl)thiazolo[4,5-d]pyridazin-4(5H)-one] gave a pEC50 (Table D) of 4.00 to 5.52.

Turning to `Cc1cc2c(-c3ccc(Cl)cc3)nn(-c3ccc4c(c3)OCO4)c(=O)c2cc1C` [compound 19, 2-(benzo[d][1,3]dioxol-5-yl)-4-(4-chlorophenyl)-6,7-dimethylphthalazin-1(2H)-one], for the setting “Table D”, the pEC50 was 4.00 to 5.52.

For the compound `Cc1cc2c(-c3ccc(Cl)cc3)nn(-c3ccc(N(C)C4COC4)nc3)c(=O)c2nc1C` [I-119, 5-(4-chlorophenyl)-2,3-dimethyl-7-[6-[methyl(oxetan-3-yl)amino]-3-pyridyl]pyrido[2,3-d]pyridazin-8-one; formic acid], the pEC50 (Table D-2) was 5.52 to 6.30.

In turn, `Cc1cc2c(-c3ccc(Cl)cc3)nn(-c3ccnc(OC4CN(C(=O)OC(C)(C)C)C4)c3)c(=O)c2cc1C` [compound 20, tert-butyl 3-((4-(4-(4-chlorophenyl)-6,7-dimethyl-1-oxophthalazin-2(1H)-yl)pyridin-2-yl)oxy)azetidine-1-carboxylate] showed a pEC50 (Table D) of 5.52 to 6.30.

On to `Cc1cc2c(-c3ccc(Cl)cc3)nn(-c3ccnc(C4COC4)c3)c(=O)c2cc1C` [compound 14, 4-(4-chlorophenyl)-6,7-dimethyl-2-(2-(oxetan-3-yl)pyridin-4-yl)phthalazin-1(2H)-one], for which the pEC50 (Table D) was 5.52 to 6.30.

In turn, `Cc1ccc2c(-c3ccc(Cl)cc3)nn(-c3ccc(OC(F)(F)F)cc3)c(=O)c2n1` [compound 23, 5-(4-chlorophenyl)-2-methyl-7-(4-(trifluoromethoxy)phenyl)pyrido[2,3-d]pyridazin-8(7H)-one] showed a pEC50 (Table D) of 5.52 to 6.30.

As to `O=c1c2nc(NCCc3ccccc3)sc2c(-c2ccc(Cl)cc2)nn1CCc1ccccc1` [compound 37, 7-(4-chlorophenyl)-5-(2-phenylethyl)-2-(2-phenylethylamino)thiazolo[4,5-d]pyridazin-4-one], where the note is “Table D”, the pEC50 is 4.00 to 5.52.

On to `COc1ccc(-c2nn(CCc3ccccc3)c(=O)c3nc(C)sc23)cc1` [compound 40, 7-(4-methoxyphenyl)-2-methyl-5-phenethylthiazolo[4,5-d]pyridazin-4(5H)-one], for which the pEC50 (Table D) is 4.00 to 5.52.

`Cc1cc2c(-c3ccc(Cl)cc3)nn(-c3ccnc(N4CCN(C(=O)OC(C)(C)C)CC4)c3)c(=O)c2cc1C` [compound 18, tert-butyl 4-(4-(4-(4-chlorophenyl)-6,7-dimethyl-1-oxophthalazin-2(1H)-yl)pyridin-2-yl)piperazine-1-carboxylate] showed a pEC50 (Table D) of 5.52 to 6.30.

Regarding `Cc1cc2c(-c3ccc(Cl)cc3)nn(-c3ccc(C4CC4)nc3)c(=O)c2cc1C` [compound 17, 4-(4-chlorophenyl)-2-(6-cyclopropylpyridin-3-yl)-6,7-dimethylphthalazin-1(2H)-one], the negative-log EC50 (pEC50) (Table D) was 4.00 to 5.52.

On to `Cc1ccc(-c2nn(CCc3ccccc3)c(=O)c3nc(C)sc23)cc1` [compound 34, 2-methyl-5-phenethyl-7-(p-tolyl)thiazolo[4,5-d]pyridazin-4(5H)-one], for which the pEC50 (Table D) was 4.00 to 5.52.

`Cc1nc2c(=O)n(C(C)Cc3ccc(Cl)cc3)nc(-c3ccc(Cl)cc3)c2s1` (centres unmarked) [compound 30, 7-(4-chlorophenyl)-5-(1-(4-chlorophenyl)propan-2-yl)-2-methylthiazolo[4,5-d]pyridazin-4 (5H)-one] had a pEC50 (Table D) of 4.00 to 5.52.

The compound `Cc1cc2c(-c3ccc(Cl)cc3)nn(-c3ccnc(NC4CC(F)(F)C4)c3)c(=O)c2nc1C` [I-117, 5-(4-chlorophenyl)-7-(2-((3,3-difluorocyclobutyl)amino)pyridin-4-yl)-2,3-dimethylpyrido[2,3-d]pyridazin-8 (7H)-one] gave a negative-log EC50 (pEC50) (Table D-2) of 5.52 to 6.30.

Under “Table D”, `CC(C)n1ccc(-n2nc(-c3ccc(Cl)cc3)c3cc(Cl)c(Cl)cc3c2=O)cc1=O` [compound 11, 6,7-dichloro-4-(4-chlorophenyl)-2-(1-isopropyl-2-oxo-1,2-dihydropyridin-4-yl)phthalazin-1(2H)-one] showed a pEC50 of 5.52 to 6.30.
